As a reminder, the Ki is a measure of affinity in units of concentration, obtained from inhibition or displacement.

This assay deals with T1, Muscarinic acetylcholine receptor M4 (Homo sapiens, UniProt P08173).
T1 sequence (P08173 whole entry): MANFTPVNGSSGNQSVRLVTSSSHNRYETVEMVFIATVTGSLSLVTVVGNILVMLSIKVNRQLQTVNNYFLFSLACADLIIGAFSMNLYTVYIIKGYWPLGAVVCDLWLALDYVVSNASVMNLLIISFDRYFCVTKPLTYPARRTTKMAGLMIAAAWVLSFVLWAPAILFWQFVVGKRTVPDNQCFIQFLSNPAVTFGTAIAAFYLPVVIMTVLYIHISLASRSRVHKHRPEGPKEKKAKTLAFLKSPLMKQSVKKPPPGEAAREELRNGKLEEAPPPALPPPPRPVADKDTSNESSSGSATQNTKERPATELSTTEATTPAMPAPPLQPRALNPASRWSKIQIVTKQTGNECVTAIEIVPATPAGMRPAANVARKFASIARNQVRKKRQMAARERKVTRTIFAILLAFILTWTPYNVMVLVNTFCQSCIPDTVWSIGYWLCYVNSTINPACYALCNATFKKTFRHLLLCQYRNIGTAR
The assay can be described thus: Binding Assay. Here is the method: Binding affinity (Ki) for the compounds was measured by inhibition of radioligand binding to membranes from CHO cells expressing human M4 receptor. Membranes were prepared by nitrogen cavitation and differential centrifugation as previously described (Hoare et al., Mol. Pharmacol. 2003 March; 63(3): 751-65). The radioligand employed was tritiated N-methylscopolamine, used at a concentration of 1.5 nM. A dose-response of twelve concentrations of compound was used, […]. The assay buffer was 50 mM HEPES, 100 mM NaCl, 5 mM MgCl2, 1 mM ethylenediaminetetraacetic acid, pH-adjusted to pH 7.4. Membranes, radioligand and compound were incubated together for 90 minutes at 37° C., in a total volume of 150 μL in a 96-well plate. Receptor-bound radioligand was then collected by harvesting the assay over glass fiber filters pretreated with polyethylenimine to trap the cell membranes, using rapid vacuum filtration. Harvesting and radioactivity counting was conducted as previously described (see, e.g., Hoare et al., Mol. Pharmacol. 2003 63(3):751-65); Erratum at Mol. Pharmacol. 2005 July; 68(1): 260).
In turn, `C[C@@H]1CN(c2ncc(S(=O)(=O)C3CC3)cn2)C[C@@H](C)N1C(=O)OC1CC2(C1)CN(Cc1ccccc1)C2` [US20250092022, Compound 19] returned a Ki of under 100 nM.

`Cc1nc(N2C[C@@H](C)N(C(=O)OC3CC4(C3)CN(Cc3ccccc3)C4)[C@@H](C)C2)ncc1S(C)(=O)=O` [US20250092022, Compound 40] displayed a Ki of under 100 nM.

Turning to `C[C@@H]1CN(c2ncc(S(=O)(=O)C(F)F)cn2)C[C@H](C)N1C(=O)OC1CC2(C1)CN(Cc1ccccc1)C2` [US20250092022, Compound 41], the Ki was under 100 nM.

In the case of `C[C@@H]1CN(c2ncc(OCCO)cn2)C[C@H](C)N1C(=O)OC1CC2(C1)CN(Cc1ccccc1)C2` [US20250092022, Compound 52], the Ki is over 500 nM.

Values taken from BindingDB's records for patent US20250092022 (Neurocrine Biosciences, 2025).
